# Tested on: LG0703-F948-PDC complex spheroid viability
# Test: Anticancer human tumor LG0703-F948-PDC patient-derived lung adenocarcinoma cell line growth inhibition [RAS]
# Conditions: for IC50: curve of first compound; for viability, T/C: stronger effect = lower value
# Procedure, shortened: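 Tumour cells grown as complex spheroids with HUVEC endothelial cells and mesenchymal stem cells, treated with RAS pathway inhibitor combinations. Each agent spans half-log steps from near clinical Cmax, or 10 microM where Cmax is unknown.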
# [1] = second compound 0.000949 µM, first compound 0.0316 µM
# [2] = second compound 0.000949 µM, first compound 0.1 µM
# [3] = second compound 0.000949 µM, first compound 0.316 µM
# [4] = second compound 0.000949 µM, first compound 1 µM
# [5] = second compound 0.003 µM, first compound 0.0316 µM
# [6] = second compound 0.003 µM, first compound 0.1 µM
# [7] = second compound 0.003 µM, first compound 0.316 µM
# [8] = second compound 0.003 µM, first compound 1 µM
# [9] = second compound 0.00949 µM, first compound 0.0316 µM
# [10] = second compound 0.00949 µM, first compound 0.1 µM
# [11] = second compound 0.00949 µM, first compound 0.316 µM
# [12] = second compound 0.00949 µM, first compound 1 µM
# [13] = second compound 0.03 µM, first compound 0.0316 µM
# [14] = second compound 0.03 µM, first compound 0.1 µM
# [15] = second compound 0.03 µM, first compound 0.316 µM
# [16] = second compound 0.03 µM, first compound 1 µM
# [17] = second compound 0.0949 µM, first compound 0.0316 µM
# [18] = second compound 0.0949 µM, first compound 0.1 µM
# [19] = second compound 0.0949 µM, first compound 0.316 µM
# [20] = second compound 0.0949 µM, first compound 1 µM
# [21] = second compound 0.3 µM, first compound 0.0316 µM
# [22] = second compound 0.3 µM, first compound 0.1 µM
# [23] = second compound 0.3 µM, first compound 0.316 µM
# [24] = second compound 0.3 µM, first compound 1 µM
# 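Also: spheroids exposed to agents for 7 days.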
# 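For viability, T/C in this document: 100% = DMSO vehicle wells.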
structure (smiles),measurement,setting,value
CCC(CC)c1cc(NC2CCC(N)C2)n2nccc2n1 (stereo unspecified) + CCn1c(-c2cc(N3CCN(C)CC3)cnc2C(C)OC)c2c3cc(ccc31)-c1csc(n1)CC(NC(=O)C1CC1C)C(=O)N1CCCC(N1)C(=O)OCC(C)(C)C2,IC50,second compound 0.000949 µM,0.427 µM
same,IC50,second compound 0.003 µM,< 0.0316 µM
same,IC50,second compound 0.00949 µM,< 0.0316 µM
same,IC50,second compound 0.03 µM,< 0.0316 µM
same,IC50,second compound 0.0949 µM,< 0.0316 µM
same,IC50,second compound 0.3 µM,< 0.0316 µM
same,"viability, T/C",[1],72.3%
same,"viability, T/C",[2],59.8%
same,"viability, T/C",[3],55.2%
same,"viability, T/C",[4],33.9%
same,"viability, T/C","second compound 0.000949 µM, first compound 3.16 µM",0.67%
same,"viability, T/C","second compound 0.000949 µM, first compound 10 µM",0.23%
same,"viability, T/C",[5],44.1%
same,"viability, T/C",[6],40.2%
same,"viability, T/C",[7],36.8%
same,"viability, T/C",[8],25.3%
same,"viability, T/C","second compound 0.003 µM, first compound 3.16 µM",0.46%
same,"viability, T/C","second compound 0.003 µM, first compound 10 µM",0.16%
same,"viability, T/C",[9],24.1%
same,"viability, T/C",[10],20.3%
same,"viability, T/C",[11],17.9%
same,"viability, T/C",[12],9.58%
same,"viability, T/C","second compound 0.00949 µM, first compound 3.16 µM",0.42%
same,"viability, T/C","second compound 0.00949 µM, first compound 10 µM",0.27%
same,"viability, T/C",[13],13%
same,"viability, T/C",[14],13.9%
same,"viability, T/C",[15],13.1%
same,"viability, T/C",[16],6.07%
same,"viability, T/C","second compound 0.03 µM, first compound 3.16 µM",0.25%
same,"viability, T/C","second compound 0.03 µM, first compound 10 µM",0.24%
same,"viability, T/C",[17],9.5%
same,"viability, T/C",[18],10.2%
same,"viability, T/C",[19],9.16%
same,"viability, T/C",[20],5.84%
same,"viability, T/C","second compound 0.0949 µM, first compound 3.16 µM",0.57%
same,"viability, T/C","second compound 0.0949 µM, first compound 10 µM",0.11%
same,"viability, T/C",[21],8.46%
same,"viability, T/C",[22],9.75%
same,"viability, T/C",[23],8.9%
same,"viability, T/C",[24],4.9%
same,"viability, T/C","second compound 0.3 µM, first compound 3.16 µM",0.23%
same,"viability, T/C","second compound 0.3 µM, first compound 10 µM",0.41%
C=CC(=O)N1CCN(c2nc(OCC3CCCN3C)nc3c(F)c(-c4nc(N)cc(C)c4C(F)(F)F)c(Cl)cc23)C(C)C1 (stereo unspecified) + CCn1c(-c2cccnc2C(C)OC)c2c3cc(ccc31)N1CCOC(CC(NC(=O)C(C(C)C)N(C)C(=O)C3(F)CCN(C(=O)C#CC(C)(C)N(C)C)CC3)C(=O)N3CCCC(N3)C(=O)OCC(C)(C)C2)C1,IC50,second compound 0.000949 µM,> 1 µM
same,IC50,second compound 0.003 µM,> 1 µM
same,IC50,second compound 0.00949 µM,> 1 µM
same,IC50,second compound 0.03 µM,> 1 µM
same,IC50,second compound 0.0949 µM,> 1 µM
same,IC50,second compound 0.3 µM,< 0.00316 µM
same,"viability, T/C","second compound 0.000949 µM, first compound 0.00316 µM",91.1%
same,"viability, T/C","second compound 0.000949 µM, first compound 0.01 µM",92.5%
same,"viability, T/C",[1],90.4%
same,"viability, T/C",[2],88%
same,"viability, T/C",[3],89.5%
same,"viability, T/C",[4],116%
same,"viability, T/C","second compound 0.003 µM, first compound 0.00316 µM",95.5%
same,"viability, T/C","second compound 0.003 µM, first compound 0.01 µM",85.6%
same,"viability, T/C",[5],99.5%
same,"viability, T/C",[6],87.7%
same,"viability, T/C",[7],80.7%
same,"viability, T/C",[8],89.6%
same,"viability, T/C","second compound 0.00949 µM, first compound 0.00316 µM",89.6%
same,"viability, T/C","second compound 0.00949 µM, first compound 0.01 µM",95.1%
same,"viability, T/C",[9],88.4%
same,"viability, T/C",[10],99%
same,"viability, T/C",[11],101%
same,"viability, T/C",[12],87.3%
same,"viability, T/C","second compound 0.03 µM, first compound 0.00316 µM",91.1%
same,"viability, T/C","second compound 0.03 µM, first compound 0.01 µM",89.3%
same,"viability, T/C",[13],78.1%
same,"viability, T/C",[14],92.6%
same,"viability, T/C",[15],107%
same,"viability, T/C",[16],81.6%
same,"viability, T/C","second compound 0.0949 µM, first compound 0.00316 µM",78.2%
same,"viability, T/C","second compound 0.0949 µM, first compound 0.01 µM",79.1%
same,"viability, T/C",[17],76.7%
same,"viability, T/C",[18],85.3%
same,"viability, T/C",[19],77.3%
same,"viability, T/C",[20],77.4%
same,"viability, T/C","second compound 0.3 µM, first compound 0.00316 µM",51.9%
same,"viability, T/C","second compound 0.3 µM, first compound 0.01 µM",47.8%
same,"viability, T/C",[21],47.7%
same,"viability, T/C",[22],44.4%
same,"viability, T/C",[23],59.9%
same,"viability, T/C",[24],50.5%
C=CC(=O)N1CCN(c2nc(OCC3CCCN3C)nc3c(F)c(-c4nc(N)cc(C)c4C(F)(F)F)c(Cl)cc23)C(C)C1 (stereo unspecified) + C#Cc1c(F)ccc2cc(O)cc(-c3ncc4c(N5CC6CCC(C5)N6)nc(OCC56CCCN5CC(F)C6)nc4c3F)c12,IC50,second compound 0.0316 µM,> 1 µM
same,IC50,second compound 0.1 µM,> 1 µM
same,IC50,second compound 0.316 µM,> 1 µM
same,IC50,second compound 1 µM,> 1 µM
same,IC50,second compound 3.16 µM,> 1 µM
same,IC50,second compound 10 µM,0.197 µM
same,"viability, T/C","second compound 0.0316 µM, first compound 0.00316 µM",127%
same,"viability, T/C","second compound 0.0316 µM, first compound 0.01 µM",87.8%
same,"viability, T/C","second compound 0.0316 µM, first compound 0.0316 µM",111%
same,"viability, T/C","second compound 0.0316 µM, first compound 0.1 µM",120%
same,"viability, T/C","second compound 0.0316 µM, first compound 0.316 µM",109%
same,"viability, T/C","second compound 0.0316 µM, first compound 1 µM",85.2%
same,"viability, T/C","second compound 0.1 µM, first compound 0.00316 µM",98.7%
same,"viability, T/C","second compound 0.1 µM, first compound 0.01 µM",110%
same,"viability, T/C","second compound 0.1 µM, first compound 0.0316 µM",94.9%
same,"viability, T/C","second compound 0.1 µM, first compound 0.1 µM",104%
same,"viability, T/C","second compound 0.1 µM, first compound 0.316 µM",109%
same,"viability, T/C","second compound 0.1 µM, first compound 1 µM",97.8%
same,"viability, T/C","second compound 0.316 µM, first compound 0.00316 µM",89.5%
same,"viability, T/C","second compound 0.316 µM, first compound 0.01 µM",82.2%
same,"viability, T/C","second compound 0.316 µM, first compound 0.0316 µM",86.1%
same,"viability, T/C","second compound 0.316 µM, first compound 0.1 µM",72.6%
same,"viability, T/C","second compound 0.316 µM, first compound 0.316 µM",82%
same,"viability, T/C","second compound 0.316 µM, first compound 1 µM",84.6%
same,"viability, T/C","second compound 1 µM, first compound 0.00316 µM",63.7%
same,"viability, T/C","second compound 1 µM, first compound 0.01 µM",76.6%
same,"viability, T/C","second compound 1 µM, first compound 0.0316 µM",79.3%
same,"viability, T/C","second compound 1 µM, first compound 0.1 µM",66.2%
same,"viability, T/C","second compound 1 µM, first compound 0.316 µM",73.9%
same,"viability, T/C","second compound 1 µM, first compound 1 µM",75%
same,"viability, T/C","second compound 3.16 µM, first compound 0.00316 µM",61.8%
same,"viability, T/C","second compound 3.16 µM, first compound 0.01 µM",57.8%
same,"viability, T/C","second compound 3.16 µM, first compound 0.0316 µM",75.3%
same,"viability, T/C","second compound 3.16 µM, first compound 0.1 µM",63.6%
same,"viability, T/C","second compound 3.16 µM, first compound 0.316 µM",59.3%
same,"viability, T/C","second compound 3.16 µM, first compound 1 µM",62.9%
same,"viability, T/C","second compound 10 µM, first compound 0.00316 µM",51.9%
same,"viability, T/C","second compound 10 µM, first compound 0.01 µM",54.2%
same,"viability, T/C","second compound 10 µM, first compound 0.0316 µM",54.1%
same,"viability, T/C","second compound 10 µM, first compound 0.1 µM",47.5%
same,"viability, T/C","second compound 10 µM, first compound 0.316 µM",50.7%
same,"viability, T/C","second compound 10 µM, first compound 1 µM",47%

# — PubChem BioAssay AID2060890 (Molecular Pharmacology Branch, DTP, NCI, 2025)
